According to patent US8153631B2, “Triazole compounds and uses related thereto” (Amgen Inc., priority 2003, dated 2012):

Target: T1, human HSD1 (recombinant HSD1) (Homo sapiens, UniProt P28845)
T1 construct: made in house
Assay: In vitro HSD1 activity inhibitory action, SPA of cortisone to cortisol conversion
Format: biochemical
Settings: recombinant human HSD1 0.1 μg/ml, 500 μM NADPH, 16 nM 3H cortisone, room temperature 90 min, read-out: hHSD1 IC50
Outline: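 Baculovirus-expressed recombinant HSD1 (0.1 μg/ml) with 500 μM NADPH and 16 nM ³H-cortisone in 0.1% BSA/PBS, 90 min at room temperature. Stopped with anti-cortisol antibody, SPA beads and carbenoxolone, read after overnight incubation. Inhibition scaled between DMSO (0%) and 50 μM carbenoxolone (100%); IC50 by curve fitting.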

T1 sequence (P28845 whole entry): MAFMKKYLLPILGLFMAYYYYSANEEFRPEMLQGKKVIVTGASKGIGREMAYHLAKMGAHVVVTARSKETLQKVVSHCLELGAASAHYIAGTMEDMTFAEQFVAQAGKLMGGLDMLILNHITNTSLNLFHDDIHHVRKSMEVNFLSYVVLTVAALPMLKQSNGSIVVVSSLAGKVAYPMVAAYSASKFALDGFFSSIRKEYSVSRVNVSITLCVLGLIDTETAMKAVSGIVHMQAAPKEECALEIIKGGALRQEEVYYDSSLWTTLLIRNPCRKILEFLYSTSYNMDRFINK

| Compound | IC50 [nM] |
| --- | --- |
| Cn1c(-c2ccc(Cl)cc2[N+](=O)[O-])nnc1C1(c2ccccc2)CC1 [Ex. 1-93] | < 10 |
| Cn1c(-c2ccc(N3CCC(CO)CC3)cc2Cl)nnc1C1(c2ccccc2)CC1 [Ex. 1-108] | < 10 |
| CONC(=O)Nc1ccc(-c2nnc(C3(c4ccccc4)CC3)n2C)c(Cl)c1 [Ex. 1-117] | < 10 |
| CC(C)NC(=O)c1ccc(-c2nnc(C3(c4ccccc4)CC3)n2C)c(Cl)c1 [Ex. 1-79] | 10 to 1000 |
| Cn1c(-c2ccccc2Cl)nnc1C1(c2ccccc2)CC1 [Ex. 1-101] | < 10 |

More lines, now with the values ahead:

| IC50 [nM] | Compound |
| --- | --- |
| 10 to 1000 | Cn1c(N2CCC(N)CC2)nnc1C1(c2ccccc2)CC1 [Ex. 2-8] |
| 10 to 1000 | Cn1c(N2CCC(Oc3ncc(Cl)cc3Cl)CC2)nnc1C1(c2ccc(Cl)cc2Cl)CC1 [Ex. 2-88] |
